Each compound was assayed against T1, PD-1/PD-L1 (Homo sapiens, UniProt Q9NZQ7) (assay: PD1-PDL1 HTRF assay). Conditions: PD-1/PD-L1 homogenous time-resolved fluorescence (HTRF) binding assay; Tag1-PDL1 5 nM, Tag2-PD1 50 nM.
T1 construct: purchased CisBio
Text: The CisBio HTRF assay kit, purchased from CisBio only, was employed to determine the IC50 values of compounds. The PD1-PDL1 HTRF assay measures the interactions between the two proteins, PD1 and PDL1. The interaction is detected by using anti-Tag1 labeled with Europium (HTRF donor) which binds to PDL1 and anti-Tag2 labeled with XL665 (HTRF acceptor) which binds to PD1. When the two antibodies are in proximity, the excitation of the donor fluorophore results in FRET emission from the acceptor fluorophore. The presence of inhibitors for such an interaction result in reduction of HTRF signal.
The assay was conducted in 96-well white assay plates. All the reagents, including Tag1-PDL1, Tag2-PD1, Anti-Tag1-PDL1, Anti-Tag2-PD1 were thawed and diluted with PPI Europium Detection buffer to achieve the desired concentration as per the manufacturer's protocol. A 1000 μM stock solution of test inhibitors was prepared in DMSO. The stock solution was diluted in DMSO to prepare 8 concentrations (1000-0.001 μM). These stock solutions were further diluted in PPI Europium detection buffer to prepare 8 working stock solutions (100-0.0001 μM). To the 96-well plate, 2 μL of the test inhibitor working stock solutions were added followed by 4 μL of Tag1-PDL1 (5 nM) and 4 μL of Tag2-PD1 (50 nM). The plate was incubated at room temperature for 15 min. Subsequently, 10 μL of pre-mixed Anti-Tag1-PDL1 and Anti-Tag2-PD1 solution was added. The plate was sealed and incubated at room temperature for 1 h. The HTRF signal was read on Perkin Elmer Envision plate reader using excitation wavelength of 320 nm, emission wavelengths of 620 nm and 665 nm. Results were obtained by calculating the ratio of signal from acceptor at 665 nm to that of signal from donor at 620 nm multiplied by […]. The IC50 values were determined by the Hill equation using GraphPad Prism software.

T1 sequence (Q9NZQ7 19-238 limits assumed): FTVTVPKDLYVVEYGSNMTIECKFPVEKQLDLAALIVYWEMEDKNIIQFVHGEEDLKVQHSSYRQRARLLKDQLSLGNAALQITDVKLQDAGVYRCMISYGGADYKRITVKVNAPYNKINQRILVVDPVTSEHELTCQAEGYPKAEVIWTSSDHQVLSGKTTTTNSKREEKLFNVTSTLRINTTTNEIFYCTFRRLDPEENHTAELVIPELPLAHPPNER

| Structure (SMILES) | IC50 [µM] |
| --- | --- |
| Cc1c(-c2ccc3c(c2)OCCO3)cccc1-c1ccn2c(-c3ccc(CNCCC(=O)O)cc3)nnc2c1 [Example 61, 3-((4-(7-(3-(2,3-dihydrobenzo[b][1,4]dioxin-6-yl)-2-methylphenyl)-[1,2,4]triazolo[4,3-a]pyridin-3-yl)benzyl)amino)propanoic acid] | 0.1 to 1 |
| Cc1c(-c2ccc(CNCCO)cc2)cccc1-c1cccc(-c2ccn3c(-c4ccc(CN5CC[C@@H](C(=O)O)C5)cc4)nnc3c2)c1C [Example 65, (R)-1-(4-(7-(4″-(((2-hydroxyethyl)amino)methyl)-2,2′-dimethyl-[1,1′:3′,1″-terphenyl]-3-yl)-[1,2,4]triazolo[4,3-α]pyridin-3-yl)benzyl)pyrrolidine-3-carboxylic acid] | 0.01 to 0.1 |
| OCCNCc1ccc(-c2cccc(-c3cccc(-c4ccn5c(-c6ccc(CNCCO)cc6)nnc5c4)c3Cl)c2Cl)cc1 [Example 66, 2-(((2′,2″-dichloro-3″-(3-(4-(((2-hydroxyethyl)amino)methyl)phenyl)-[1,2,4]triazolo[4,3-a]pyridin-7-yl)-[1,1′:3′,1″-terphenyl]-4-yl)methyl)amino)ethan-1-ol] | 0.01 to 0.1 |
| Cc1c(NC(=O)c2ccc(CNCCO)cn2)cccc1-c1cccc(-c2ccn3c(-c4ccc(CN5CCC[C@@H]5C(=O)O)cc4)nnc3c2)c1C [Example 68, (4-(7-(3′-(5-(((2-hydroxyethyl)amino)methyl)picolinamido)-2,2′-dimethyl-[1,1′-biphenyl]-3-yl)-[1,2,4]triazolo[4,3-a]pyridin-3-yl)benzyl)-D-proline] | ≤ 0.01 |
| Cc1c(NC(=O)c2ccc(CNC[C@H]3CCC(=O)N3)cn2)cccc1-c1cccc(-c2ccn3c(-c4ccc(CNC[C@H]5CCC(=O)N5)cc4)nnc3c2)c1C [Example 71, N-(2,2′-dimethyl-31-(3-(4-(((((R)-5-oxopyrrolidin-2-yl)methyl)amino)methyl)phenyl)-[1,2,4]triazolo[4,3-α]pyridin-7-yl)-[1,1′-biphenyl]-3-yl)-5-(((((R)-5-oxopyrrolidin-2-yl)methyl)amino)methyl)picolinamide] | 0.01 to 0.1 |
| COCCNCc1ccc(-c2nnc3cc(-c4cccc(-c5cccc(NC(=O)c6ccc(CNCCO)cn6)c5C)c4C)ccn23)cc1 [Example 72, 5-(((2-hydroxyethyl)amino)methyl)-N-(3′-(3-(4-(((2-methoxyethyl)amino)methyl)phenyl)-[1,2,4]triazolo[4,3-α]pyridin-7-yl)-2,2′-dimethyl-[1,1′-biphenyl]-3-yl)picolinamide] | ≤ 0.01 |
| Cc1c(-c2ccn3c(-c4ccc(CN5CCC[C@@H]5C(=O)O)cc4)nnc3c2)cccc1-c1cccc(-c2ccn3c(-c4ccc(CN5CCC[C@@H]5C(=O)O)cc4)nnc3c2)c1C [Example 73, (2′R)-((((2,2′-dimethyl-[1,1′-biphenyl]-3,3′-diyl)bis ([1,2,4]triazolo[4,3-ci]pyridine-7,3-diyl))bis(4,1-phenylene))bis(methylene))di-D-proline] | 0.01 to 0.1 |
| Cc1c(-c2ccc(CNCCO)cc2)cccc1-c1cccc(-c2ccn3c(-c4ccc(CNCCO)cc4)nnc3c2)c1C [Example 75, 2-((4-(7-(4″-(((2-hydroxyethyl)amino)methyl)-2,2′-dimethyl-[1,1′:3′,1″-terphenyl]-3-yl)-[1,2,4]triazolo[4,3-α]pyridin-3-yl)benzyl)amino)ethan-1-ol] | 0.01 to 0.1 |
| Cc1c(-c2ccc(CNC[C@H]3CCC(=O)N3)cc2)cccc1-c1cccc(-c2ccn3c(-c4ccc(CNC[C@H]5CCC(=O)N5)cc4)nnc3c2)c1C [Example 76, (R)-5-((((2′,2″-dimethyl-3″-(3-(4-(((((R)-5-oxopyrrolidin-2-yl)methyl)amino)methyl)phenyl)-[1,2,4]triazolo[4,3-α]pyridin-7-yl)-[1,1′:3′,1″-terphenyl]-4-yl)methyl)amino)methyl)pyrrolidin-2-one] | 0.01 to 0.1 |
| Cc1c(Nc2nccc3cc(CN4CC[C@@H](O)C4)cnc23)cccc1-c1cccc(-c2ccn3c(-c4ccc(CN5CCC[C@@H]5C(=O)O)cc4)nnc3c2)c1C [Example 80, (4-(7-(3′-((3-(((R)-3-hydroxypyrrolidin-1-yl)methyl)-1,7-naphthyridin-8-yl)amino)-2,2′-dimethyl-[1,1′-biphenyl]-3-yl)-[1,2,4]triazolo[4,3-α]pyridin-3-yl)benzyl)-D-proline] | ≤ 0.01 |
| Cc1c(Nc2nccc3cc(CN4CC[C@@H](O)C4)cnc23)cccc1-c1cccc(-c2ccn3c(-c4ccc(CNCCO)cc4)nnc3c2)c1C [Example 81, (R)-1-((8-((3′-(3-(4-(((2-hydroxyethyl)amino)methyl)phenyl)-[1,2,4]triazolo[4,3-α]pyridin-7-yl)-2,2′-dimethyl-[1,1′-biphenyl]-3-yl)amino)-1,7-naphthyridin-3-yl)methyl)pyrrolidin-3-ol] | ≤ 0.01 |

Second part, the compound after the results:

| IC50 [µM] | Structure (SMILES) |
| --- | --- |
| ≤ 0.01 | Cc1c(-c2ccc(CNCCO)cc2)cccc1-c1cccc(-c2ccn3c(-c4ccc(CN5CCC[C@@H]5C(=O)O)cc4)nnc3c2)c1C [Example 62, (4-(7-(4″-(((2-hydroxyethyl)amino)methyl)-2,2′-dimethyl-[1,1′:3′,1″-terphenyl]-3-yl)-[1,2,4]triazolo[4,3-a]pyridin-3-yl)benzyl)-D-proline] |
| 0.01 to 0.1 | Cc1c(-c2ccn3c(-c4ccc(CN5CCC[C@@H]5C(=O)O)cc4)nnc3c2)cccc1-c1cccc(-c2cnc(CNCCO)cn2)c1C [Example 63, (4-(7-(3′-(5-(((2-hydroxyethyl)amino)methyl)pyrazin-2-yl)-2,2′-dimethyl-[1,1′-biphenyl]-3-yl)-[1,2,4]triazolo [4,3-α]pyridin-3-yl)benzyl)-D-proline] |
| ≤ 0.01 | Cc1c(-c2ccc(CNCCO)cc2)cccc1-c1cccc(-c2ccn3c(-c4ccc(CN5CCC[C@H]5C(=O)O)cc4)nnc3c2)c1C [Example 64, (4-(7-(4″-(((2-hydroxyethyl)amino)methyl)-2,2′-dimethyl-[1,1′:3′,1″-terphenyl]-3-yl)-[1,2,4]triazolo[4,3-α]pyridin-3-yl)benzyl)-L-proline] |
| ≤ 0.01 | O=C(O)[C@H]1CCCN1Cc1ccc(-c2nnc3cc(-c4cccc(-c5cccc(-c6ccc(CNCCO)cc6)c5Cl)c4Cl)ccn23)cc1 [Example 67, (4-(7-(2,2′-dichloro-4″-(((2-hydroxyethyl)amino)methyl)-[1,1′:3′,1″-terphenyl]-3-yl)-[1,2,4]triazolo[4,3-a]pyridin-3-yl)benzyl)-D-proline] |
| ≤ 0.01 | Cc1c(NC(=O)c2ccc(CNCCO)cn2)cccc1-c1cccc(-c2ccn3c(-c4ccc(CN5CCC[C@H]5C(=O)O)cc4)nnc3c2)c1C [Example 69, (4-(7-(31-(5-(((2-hydroxyethyl)amino)methyl)picolinamido)-2,2′-dimethyl-[1,1′-biphenyl]-3-yl)-[1,2,4]triazolo [4,3-α]pyridin-3-yl)benzyl)-L-proline] |
| ≤ 0.01 | Cc1c(NC(=O)c2ccc(CNCCO)cn2)cccc1-c1cccc(-c2ccn3c(-c4ccc(CNCCO)cc4)nnc3c2)c1C [Example 70, 5-(((2-hydroxyethyl)amino)methyl)-N-(3′-(3-(4-(((2-hydroxyethyl)amino)methyl)phenyl)-[1,2,4]triazolo[4,3-a]pyridin-7-yl)-2,2′-dimethyl-[1,1′-biphenyl]-3-yl)picolinamide] |
| 0.01 to 0.1 | Cc1c(-c2ccc(CNC[C@@H]3CCC(=O)N3)cc2)cccc1-c1cccc(-c2ccn3c(-c4ccc(CNC[C@@H]5CCC(=O)N5)cc4)nnc3c2)c1C [Example 74, (S)-5-((((2′,2″-dimethyl-3″-(3-(4-(((((S)-5-oxopyrrolidin-2-yl)methyl)amino)methyl)phenyl)-[1,2,4]triazolo[4,3-a]pyridin-7-yl)-[1,1′:3′,1″-terphenyl]-4-yl)methyl)amino)methyl)pyrrolidin-2-one] |
| ≤ 0.01 | COc1nc(-c2cccc(-c3cccc(-c4ccn5c(-c6ccc(CNCCO)cc6)nnc5c4)c3C)c2C)ccc1CNCCO [Example 77, 2-((4-(7-(3′-(5-(((2-hydroxyethyl)amino)methyl)-6-methoxypyridin-2-yl)-2,2′-dimethyl-[1,1′-biphenyl]-3-yl)-[1,2,4]triazolo[4,3-ai]pyridin-3-yl)benzyl)amino)ethan-1-ol] |
| ≤ 0.01 | COc1cc(-c2cccc(-c3cccc(-c4ccn5c(-c6ccc(CNCCO)cc6)nnc5c4)c3C)c2C)ccc1CNCCO [Example 78, 2-((4-(7-(4″-(((2-hydroxyethyl)amino)methyl)-3″-methoxy-2,2′-dimethyl-[1,1′:3′,1″-terphenyl]-3-yl)-[1,2,4]triazolo[4,3-α]pyridin-3-yl)benzyl)amino)ethan-1-ol] |
| ≤ 0.01 | Cc1c(Nc2nccc3cc(CN4CC[C@@H](O)C4)cnc23)cccc1-c1cccc(-c2ccn3c(-c4ccc(CNC[C@@H]5CCC(=O)N5)cc4)nnc3c2)c1C [Example 79, (S)-5-(((4-(7-(3′-((3-(((R)-3-hydroxypyrrolidin-1-yl)methyl)-1,7-naphthyridin-8-yl)amino)-2,2′-dimethyl-[1,1′-biphenyl]-3-yl)-[1,2,4]triazolo[4,3-a]pyridin-3-yl)benzyl)amino)methyl)pyrrolidin-2-one] |
